Source: the supplement of paper PMC3493320

Tested on: NCI-H295R
Assay: IC50 (antiproliferative, ATP content)
Details: 48 h
Procedure, shortened: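 Compounds were pin-transferred at 8 final concentrations between 0.6 nM and 46 µM onto adrenocortical carcinoma cells (1500 per well, 1536-well plates) that had been cultured overnight in serum-free DMEM with ITS. Plates then stood 48 h at 37 °C, 5% CO2, and ATP was detected by CellTiter-Glo luminescence. IC50 was derived from logistic fits of normalised signal, and compounds giving no concentration response were noted as above the top dose.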

IC50 [µM]	SMILES
> 46	Cc1cc(=O)oc2cc(O)ccc12
> 46	N[C@@H](CSSC[C@H](N)C(=O)O)C(=O)O
> 46	C[N+](C)(C)CC[N+]1(C)Cc2c(Cl)c(Cl)c(Cl)c(Cl)c2C1.[Cl-].[Cl-]
> 46	CN(C)[C@@H]1C(O)=C(C(N)=O)C(=O)[C@@]2(O)C(O)=C3C(=O)c4c(O)cccc4[C@@](C)(O)[C@H]3[C@H](O)[C@@H]12.Cl
> 46	OCc1ccc(Cl)cc1Cl
> 46	C[C@H](Cc1ccc(O)c(O)c1)[C@@H](C)Cc1ccc(O)c(O)c1
> 46	CC/C=C\C/C=C\C/C=C\C/C=C\C/C=C\CCCC(=O)O
> 46	OC(=O)[C@@H](C(C)C)N(Cc1ccc(cc1)c2ccccc2C\3=N\N=N/N/3)C(=O)CCCC
> 46	NCC1CCC(C(=O)O)CC1 (configuration not stated)
> 46	F[C@]1([C@](C[C@@H]3C)([H])[C@@]4([H])[C@]([C@@](CC4)(O)[C@@](C)=O)(C)C[C@@H]1O)[C@](C=C2)(C)C3=CC2=O
> 46	CCCCCCCCCCCCSCCOCCO
> 46	Nc1ccn([C@@H]2O[C@H](CO)[C@@H](O)[C@@H]2O)c(=O)n1
> 46	CCOC(=O)C1=C(COCCN)NC(C)=C(C(=O)OC)C1c1ccccc1Cl.O=S(=O)(O)c1ccccc1 (configuration not stated)
> 46	CN1C(C(=O)Nc2ccccn2)=C(O)c2ccccc2S1(=O)=O
> 46	O=c1[nH]c(=O)n([C@H]2C[C@H](O)[C@@H](CO)O2)cc1Br
> 46	OCc1ccccn1
> 46	CC(C)(C)C(=O)OCOP(=O)(COCCn1cnc2c(N)ncnc21)OCOC(=O)C(C)(C)C
> 46	N21/C(=C(/SCCNC=N)C[C@@H]1[C@H](C2=O)[C@H](O)C)C(=O)O
> 46	NC(=O)C1c2ccccc2CCc2ccccc21

IC50 [µM]	SMILES
> 46	CN[C@@H]1[C@@H](O)[C@@H](O[C@@H]2[C@H](O)[C@H](O[C@H]3OC(CN)=CC[C@H]3N)[C@@H](N)C[C@H]2N)OC[C@]1(C)O
> 46	OCC(O)CS (configuration not stated)
> 46	O=C(O)/C=C/c1ccccc1
> 46	CC(=O)OC(C)C[N+](C)(C)C.[Cl-] (configuration not stated)
> 46	CC(O)COc1ccccc1 (configuration not stated)
> 46	C#C[C@]1(O)CC[C@H]2[C@@H]3CCC4=C(CCC(=O)C4)[C@H]3CC[C@@]21C
> 46	CCCc1ccc(C(=O)O)cc1
> 46	Nc1nc(/C(=C/CC(=O)O)C(=O)N[C@@H]2C(=O)N3C(C(=O)O)=CCS[C@H]23)cs1
> 46	C=CCCCCCCCCC(=O)OC
> 46	NCCC(O)(P(=O)(O)O)P(=O)(O)O
> 46	O=S1(=O)OC(c2ccc(O)cc2)(c2ccc(O)cc2)c2ccccc21
> 46	CC(=O)Oc1cccc(O)c1
> 46	CC[C@H](C)C(=O)O[C@H]1C[C@H](O)C=C2C=C[C@H](C)[C@H](CC[C@@H](O)C[C@@H](O)CC(=O)[O-])[C@H]21.[Na+]
> 46	Cc1ccc(S(=O)(=O)NC(=O)N[C@@H](C)Cc2ccccc2)cc1
> 46	CCCCCC[C@@H](O)C/C=C\CCCCCCCC(=O)[O-].[K+]
> 46	OC[C@H]1OC([S][Au])[C@H](O)[C@@H](O)[C@@H]1O (some centres not stated)
> 46	Nc1nc(NC2CC2)c2ncn([C@@H]3C=C[C@@H](CO)C3)c2n1
> 46	Cc1ccc(S(=O)(=O)NC(=O)NC2CCCC2)cc1
> 46	O=C(O)c1ccccn1

IC50 [µM]	SMILES
> 46	[C@]13([C@@](C(=O)CO)(CC[C@H]1[C@@H]2CCC=4[C@@]([C@H]2[C@H](C3)O)(\C=C/C(C=4)=O)C)O)C
> 46	CCCCC(CC)COS(=O)(=O)[O-].[Na+] (configuration not stated)
> 46	CC[C@H]1OC(=O)[C@H](C)[C@@H](O[C@H]2C[C@@](C)(OC)[C@@H](O)[C@H](C)O2)C(C)[C@@H](O[C@@H]2O[C@H](C)C[C@H](N(C)C)[C@H]2O)[C@](C)(OC)C[C@@H](C)C(=O)[C@H](C)[C@@H](O)[C@]1(C)O (some centres not stated)
> 46	CCC(C)(C)C(=O)O[C@H]1C[C@@H](C)C=C2C=C[C@H](C)[C@H](CC[C@@H]3C[C@@H](O)CC(=O)O3)[C@H]21
> 46	CC(C(=O)O)c1cccc(C(=O)c2ccccc2)c1 (configuration not stated)
> 46	NS(=O)(=O)c1cc(C(=O)O)c(NCc2ccco2)cc1Cl
> 46	CC(C)CN(C[C@@H](OP(=O)([O-])[O-])[C@H](Cc1ccccc1)NC(=O)O[C@H]1CCOC1)S(=O)(=O)c1ccc(N)cc1.[Ca+2]
> 46	CCCCCCOc1ccccc1C(N)=O
> 46	CN(CCOc1ccc(CC2SC(=O)NC2=O)cc1)c1ccccn1 (configuration not stated)
> 46	O=C(OC(C)C)/C(C(OC(C)C)=O)=C1SC=CS/1
> 46	Cc1c(C)c2c(c(C)c1O)CC[C@@](C)(CCC[C@H](C)CCC[C@H](C)CCCC(C)C)O2
> 46	C[C@H](O)[C@H](O)[C@H]1CNc2[nH]c(N)nc(=O)c2N1.Cl.Cl
> 46	COc1cc(C(=S)N2CCOCC2)ccc1O
> 46	CN(C)[C@@H]1C(O)=C(C(=O)NCN2CCCC2)C(=O)[C@@]2(O)C(O)=C3C(=O)c4c(O)cccc4[C@@](C)(O)C3C[C@@H]12.Cl (some centres not stated)
> 46	CN1CCC(=C2c3ccccc3C=Cc3ccccc32)CC1
> 46	CC(C)=CCC1C(=O)N(c2ccccc2)N(c2ccccc2)C1=O
> 46	O=C(C3)C(C(O)=CC(O[C@H]4[C@H](O)[C@@H](O)[C@H](O)[C@@H](CO[C@H]5[C@H](O)[C@H](O)[C@@H](O)[C@H](C)O5)O4)=C2)=C2O[C@@H]3[C@@]1=CC(O)=C(OC)C=C1
> 46	C1CCN2C[C@@H]3C[C@@H](CN4CCCC[C@@H]34)[C@H]2C1
> 46	O=C(O)CCC/C=C\C[C@@H]1[C@@H](/C=C/[C@@H](O)COc2cccc(C(F)(F)F)c2)[C@H](O)C[C@@H]1O

SMILES	IC50 [µM]
CCCc1nn(C)c2c(=O)[nH]c(-c3cc(S(=O)(=O)N4CCN(C)CC4)ccc3OCC)nc12.O=C(O)CC(O)(CC(=O)O)C(=O)O	> 46
CCC1(C2=NCCN2)Cc2ccccc2O1 (configuration not stated)	> 46
CCNCC(O)c1cccc(O)c1.Cl (configuration not stated)	> 46
CCCC(C)C1(CC)C(=O)N=C([S-])NC1=O.[Na+] (configuration not stated)	> 46
Cc1ccc(S(=O)(=O)O)cc1.NC1CCN(c2nc3c(cc2F)c(=O)c(C(=O)O)cn3-c2ccc(F)cc2F)C1 (configuration not stated)	> 46
C=CCN1C[C@H](C)N([C@H](c2ccc(C(=O)N(CC)CC)cc2)c2cccc(OC)c2)C[C@H]1C	> 46
COc1ccccc1N1CCNCC1.Cl	> 46
C#CCN(C)[C@H](C)Cc1ccccc1.Cl	> 46
COC(=O)c1cncn1C(C)c1ccccc1.Cl (configuration not stated)	> 46
CCC(=O)O[C@H]1CC[C@H]2[C@@H]3CCC4=CC(=O)CC[C@]4(C)[C@H]3CC[C@]12C	> 46
ClC(Cl)(Cl)Cl	> 46
C[C@]12CC[C@H]3[C@@H](CCC4=C(Cl)C(=O)CC[C@@]43C)[C@@H]1CC[C@@H]2O	> 46
CCN(CC)CCOC(=O)C(O)(c1ccccc1)c1ccccc1	> 46
CCCC(C)C1(CC)C(=O)N=C(O)NC1=O (configuration not stated)	> 46
CN1C(=O)[C@@H](NC(=O)c2cc3ccccc3[nH]2)N=C(c2ccccc2)c2ccccc21	> 46
